Results published in patent publication US20110212181A1, “COMPOSITIONS AND METHODS FOR TREATING CHRONIC RESPIRATORY INFLAMMATION” (The University of Hong Kong, priority 2010, published 2011).

Key:
NE [1] = molecular target: T1, NE (Homo sapiens, UniProt P08246); assay: Surface plasmon resonance competition assay, NE binding to HS-SA sensor chip; settings: for competitive effectiveness (inhibition of NE binding to immobilized HS): NE at 1,000 nM, competing glycosaminoglycans at 1,000 ng/ml; for competition for NE binding to immobilized HS (in words): solution-surface competition, SPR
T1 sequence (P08246 30-267): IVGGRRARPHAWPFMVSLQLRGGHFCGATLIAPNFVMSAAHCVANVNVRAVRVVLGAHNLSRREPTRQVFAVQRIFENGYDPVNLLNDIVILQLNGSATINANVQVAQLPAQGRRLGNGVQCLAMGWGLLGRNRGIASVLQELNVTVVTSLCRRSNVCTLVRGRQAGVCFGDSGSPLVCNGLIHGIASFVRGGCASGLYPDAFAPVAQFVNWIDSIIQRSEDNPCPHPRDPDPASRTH
Procedure: (§1) Interactions of HS and NE were analyzed with a BIAcore 2,000 optical biosensor (BIAcore, Uppsala, Sweden). HS chains recovered from rhSyn-1 after LiOH treatment were biotinylated at the reducing ends (68 nmol biotin/mg HS, as determined by Quant*Tag Biotin kit; Vector Laboratories, Peterborough, UK). By a 2-minute injection of biotinylated HS, […] in 10 mM Hepes (pH 7.4), 0.15 M NaCl, and 0.005% P20 surfactant (HBS-P; BIAcore), at a flow rate of […] onto the streptavidin (SA) sensor chip (BIAcore), increase in 250 resonance units indicated successful immobilization of HS onto the sensor chip. Increasing concentrations of NE in HBS-P buffer were perfused (at […] for 2 min) in turn over the HS-SA sensor chip, each followed by perfusion of buffer to facilitate dissociation. Responses were monitored at 25° C. The sensor chip was regenerated with perfusion of 2 M NaCl/HBS-P. Resonance data obtained from sensorgrams were evaluated with BIAevaluation 3.0 software (BIAcore) to yield rate constants for association (ka), dissociation (kd) and the equilibrium dissociation constant (Kd). For competition assays, NE (2,000 nM) premixed at 1:1 (vol/vol) with defined concentrations (250-2,000 ng/ml) of the competing glycosaminglycan-chondroitin 4-sulfate (C4S), heparin, and chemically modified heparins (N-desulfated re-N-acetylated, completely desulfated re-N-acetylated, or 2-O and 6-O desulfated and N-sulfated; Seikagaku) in HBS-P buffer for 30 minutes at 4° C. was injected onto the HS-SA sensor chip at […]. Dissociation and regeneration procedures were as described above. […] All experiments were preformed in duplicate. Resonance data obtained from sensorgrams were plotted as percent inhibition relative to that obtained without competing glycosaminoglycan. The concentration of competing glycosaminoglycan that interfered with NE binding to the HS-SA sensor by 50% was determined using the statistical program, PRISM (GraphPad, Inc., San Diego, Calif.).

rhSyn-1 = molecular target: T2, rhSyn-1 (Homo sapiens, UniProt P18827); assay: Western ligand blot of rhSyn-1; type: binding
T2 construct: made in house
T2 sequence (P18827 23-310): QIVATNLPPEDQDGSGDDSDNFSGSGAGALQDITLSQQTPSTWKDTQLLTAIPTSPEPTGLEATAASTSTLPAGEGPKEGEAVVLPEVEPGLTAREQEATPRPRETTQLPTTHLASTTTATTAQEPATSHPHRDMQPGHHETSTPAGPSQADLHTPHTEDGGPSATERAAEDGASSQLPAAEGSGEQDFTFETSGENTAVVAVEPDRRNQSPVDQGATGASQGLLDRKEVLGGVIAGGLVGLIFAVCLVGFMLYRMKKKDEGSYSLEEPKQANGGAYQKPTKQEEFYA
Procedure: Sputum sol was treated (30 min, 24° C.) with the mucolytic reducing agent, DTT (5 mM; Sigma) to deactivate NE, dialyzed against PBS (16 h, 4° C.) to remove DTT, and then incubated (16 h, 37° C.) with HS^ase I and II (0.01 unit each; Seikagaku, Tokyo, Japan) or chondroitinase ABC (0.01 unit; Seikagaku). Control treatments were performed in the relevant incubation buffer (product sheet; Seikagaku), but without the indicated enzymes. The digestion products were subjected to Western blot and Western ligand blot analyses. Recombinant Syn-1 was similarly treated, deglycanated, and analyzed, but without prior treatment with DTT.
Sputum sol samples were treated with DTT, as described above, and then subjected to SDS-PAGE in a 10% gel under nonreducing conditions. The gel electrophoretogram was electroblotted onto polyvinylidene fluoride membrane and nonspecific binding was blocked with 5% nonfat dry milk (1 h, 24° C.) before the blot was probed for the epitope of interest. […] Secondary antibodies were conjugated with horseradish peroxidase. The membranes were washed with PBS-Tween® 20 between incubations. Visualization was enhanced with an enhanced chemiluminescence kit (Amersham Biosciences, Piscataway, N.J.). […]

NE [2] = molecular target: T1, NE; assay: Surface plasmon resonance analysis of NE-HS binding
Procedure: as §1

NE [3] = molecular target: T1, NE; assay: Inhibition of NE activity in the presence of rhSyn-1 or sputum sol; type: biochemical; settings: incubations with rhSyn-1 and with sputum samples, with and without prior HS^ase I and II treatment
Procedure: Unopposed NE activity in sputum sol was assessed for equivalent molar concentration by active-site titration. The NE activity of sputum sol was estimated using MeO-Suc-Ala-Ala-Pro-Val-p-nitroanilide as substrate at 2 mM in 0.2 M Tris-HCl, 0.5 M NaCl (pH 8.0); the hydrolytic release of p-nitroaniline was followed at 410 nm, 37° C. (molar extinction coefficient at 410 nm=8,800). An equivalent activity of purified human NE (Sigma, St. Louis, Mo.) was titrated with increasing concentrations of the irreversible inhibitor, MeO-Suc-Ala-Ala-Pro-Val-CMK (Calbiochem, La Jolla, Calif.), and the residual activities were measured.
The inhibitor effects were compared with those of parallel procedure performed on DTT-pretreated sputum sol samples of the 12 patient recruits.

[4] = NE over immobilized HS, 1:1 Langmuir model

2-0 and 6-0 desulfated and N-sulfated heparin
competitive effectiveness (inhibition of NE binding to immobilized HS) (NE [1]): approximately 60%

Completely desulfated and re-N-acetylated heparin
competition for NE binding to immobilized HS (in words) (NE [1]): failed to outcompete

N-desulfated and re-N-acetylated heparin
competitive effectiveness (inhibition of NE binding to immobilized HS) (NE [1]): approximately 75%

alpha-1-antitrypsin [α1-AT]
binding to glycanated rhSyn-1 (rhSyn-1): not | binding to deglycanated rhSyn-1 core protein (rhSyn-1; after heparitinase and chondroitinase treatments): binding

chondroitin 4-sulfate [C4S]
competition for NE binding to immobilized HS (in words) (NE [1]): failed to outcompete | competition for NE binding to immobilized HS (in words) (NE [1]; listed as CS): not

heparan sulfate [HS]
Kd (NE [2]; NE (50-1,500 nM) perfused over immobilized HS from rhSyn-1, 1:1 Langmuir model, 25° C., read-out: equilibrium dissociation constant (Kd)): 14.2 nM | ka, rate constant for association (NE [2]; [4]): 3.31 ± 0.14 × 10^4 M^−1s^−1 | kd, rate constant for dissociation (NE [2]; [4]): 4.69 ± 0.21 × 10^−4 s^−1

heparin
competitive effectiveness (inhibition of NE binding to immobilized HS) (NE [1]): 95% | competition for NE binding to immobilized HS (in words) (NE [1]): Effective competition

B1: eglin C (peptide, UniProt P01051 1-70, looked up)
Eglin C: TEFGSELKSFPEVVGKTVDQAREYFTLHYPQYDVYFLPEGSPVTLDLRYNRVRVFYNPGTNVVNHVPHVG
inhibition of NE activity (in words) (NE [3]): complete inhibition
